We go through 17 compounds from patent publication US12686673B2 (Blueprint Medicines Corporation, priority 2020, dated 2026).

Type in all cases: cell-based
Assay [1] concerns the target EGFR(D770_N771insSVD) expressing Ba/F3 stable cell line (Homo sapiens, UniProt P00533, DUP768-770, cells depend on it). Put plainly: Cellular proliferation (Alamar Blue) assay, EGFR D770_N771insSVD Ba/F3. The settings on record: 72 hr, read-out: D770 IC50. An outline of the steps:
(§1)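 72 hr Ba/F3 viability assay; cells in RPMI/10% FBS, compound dilutions down from 10 μM final, Alamar Blue detection.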

For assay [2], the target named is EGFR (A767_dupASV) expressing Ba/F3 stable cell line (Homo sapiens, UniProt P00533, DUP767-769, cells depend on it). Put plainly: Cellular proliferation (Alamar Blue) assay, EGFR A767_dupASV Ba/F3. The note with it: 72 hr, read-out: A767 IC50. An outline of the steps: as §1
EGFR (A767_dupASV) expressing Ba/F3 stable cell line, sequence (P00533 with tags, fused parts or gaps DUP767-769): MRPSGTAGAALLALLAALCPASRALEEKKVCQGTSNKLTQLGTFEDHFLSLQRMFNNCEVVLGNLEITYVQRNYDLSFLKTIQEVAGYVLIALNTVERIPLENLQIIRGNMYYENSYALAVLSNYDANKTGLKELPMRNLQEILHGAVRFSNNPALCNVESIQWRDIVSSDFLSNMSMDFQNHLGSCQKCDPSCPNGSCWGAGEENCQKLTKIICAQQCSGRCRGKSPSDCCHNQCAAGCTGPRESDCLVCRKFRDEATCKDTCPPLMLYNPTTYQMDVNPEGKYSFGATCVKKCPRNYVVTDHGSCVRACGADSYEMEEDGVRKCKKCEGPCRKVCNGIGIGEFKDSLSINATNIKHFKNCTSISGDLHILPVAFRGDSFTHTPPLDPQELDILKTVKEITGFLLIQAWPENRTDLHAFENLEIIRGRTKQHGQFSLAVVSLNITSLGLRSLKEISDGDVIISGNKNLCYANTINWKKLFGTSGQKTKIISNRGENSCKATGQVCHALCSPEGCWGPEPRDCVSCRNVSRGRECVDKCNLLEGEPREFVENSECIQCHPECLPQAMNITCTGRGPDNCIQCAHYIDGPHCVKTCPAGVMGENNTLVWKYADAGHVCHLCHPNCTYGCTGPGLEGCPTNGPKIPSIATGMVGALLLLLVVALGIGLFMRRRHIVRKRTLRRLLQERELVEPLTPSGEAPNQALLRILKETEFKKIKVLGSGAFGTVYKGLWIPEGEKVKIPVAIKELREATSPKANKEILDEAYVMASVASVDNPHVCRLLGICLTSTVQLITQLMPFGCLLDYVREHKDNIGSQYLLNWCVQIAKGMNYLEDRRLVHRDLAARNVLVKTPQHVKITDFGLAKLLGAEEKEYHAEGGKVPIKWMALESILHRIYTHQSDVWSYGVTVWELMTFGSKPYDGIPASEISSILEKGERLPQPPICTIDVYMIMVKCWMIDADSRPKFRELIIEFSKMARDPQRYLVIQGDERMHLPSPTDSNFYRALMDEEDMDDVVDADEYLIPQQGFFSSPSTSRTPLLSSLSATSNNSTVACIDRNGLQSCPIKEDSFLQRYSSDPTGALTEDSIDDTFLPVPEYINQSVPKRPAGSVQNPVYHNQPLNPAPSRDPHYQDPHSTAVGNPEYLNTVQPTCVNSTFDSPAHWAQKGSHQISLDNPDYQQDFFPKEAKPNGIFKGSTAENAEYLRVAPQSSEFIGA
Assay [3] relates to A431 cells. Put plainly: Cellular proliferation (Alamar Blue) assay, A431. The note with it: Homo sapiens, A-431; A431 cells, Alamar Blue, 72 hr; read-out: A431 IC50.
Assay [4] addresses EGFR (H773insNPH) expressing Ba/F3 stable cell line (Homo sapiens, UniProt P00533, DUP771-773, cells depend on it). The assay is described as follows: Cellular proliferation (Alamar Blue) assay, EGFR H773insNPH Ba/F3. The settings on record: 72 hr, read-out: NPH IC50. The method, then: • 1. EGFR(D770_N771insSVD) expressing Ba/F3 stable cell line • 2. EGFR (A767_dupASV) expressing Ba/F3 stable cell line • 3. A431 cells • 4. EGFR (H773insNPH) expressing Ba/F3 stable cell line • 5. HER2 (A775_G776insYVMA) expressing Ba/F3 stable cell line Assay Procedure: • 1. Seed cells at 5000 for A431 and 15,000 cells for Ba/F3 in 100 μL/well in complete media (for A431: DMEM with […] and for Ba/F3 cells: RPMI with 10% FBS) in 96-well tissue culture plate. Leave outer wells without cells for background measurements. Incubate at 37 degree Celsius in […] humidified incubator for 16-18 hours. • 2. Add 0.025 ml of 5× concentration compound dilution or DMSO control. Final compound concentration range is 10-0.0005 μM prepared in 3-fold serial dilutions. Incubate for 72 hr at 37 degree Celsius in […] humidified incubator. • 3. Add 0.0125 ml Alamar Blue™ reagent to each well with multi-channel pipette and tap gently on each side of the plate to mix. Incubate for 3 hours at 37 degree Celsius in 5% CO2 humidified incubator. • 4. […] Data analysis was performed using XLfit 5.5.0.5.

In assay [5] the target is HER2 (A775_G776insYVMA) expressing Ba/F3 stable cell line (Homo sapiens, UniProt P04626, DUP772-775, cells depend on it). Put plainly: Cellular proliferation (Alamar Blue) assay, HER2 A775_G776insYVMA Ba/F3. The settings on record: 72 hr, read-out: YVMA IC50. An outline of the steps: as §1
HER2 (A775_G776insYVMA) expressing Ba/F3 stable cell line, sequence (P04626 with tags, fused parts or gaps DUP772-775): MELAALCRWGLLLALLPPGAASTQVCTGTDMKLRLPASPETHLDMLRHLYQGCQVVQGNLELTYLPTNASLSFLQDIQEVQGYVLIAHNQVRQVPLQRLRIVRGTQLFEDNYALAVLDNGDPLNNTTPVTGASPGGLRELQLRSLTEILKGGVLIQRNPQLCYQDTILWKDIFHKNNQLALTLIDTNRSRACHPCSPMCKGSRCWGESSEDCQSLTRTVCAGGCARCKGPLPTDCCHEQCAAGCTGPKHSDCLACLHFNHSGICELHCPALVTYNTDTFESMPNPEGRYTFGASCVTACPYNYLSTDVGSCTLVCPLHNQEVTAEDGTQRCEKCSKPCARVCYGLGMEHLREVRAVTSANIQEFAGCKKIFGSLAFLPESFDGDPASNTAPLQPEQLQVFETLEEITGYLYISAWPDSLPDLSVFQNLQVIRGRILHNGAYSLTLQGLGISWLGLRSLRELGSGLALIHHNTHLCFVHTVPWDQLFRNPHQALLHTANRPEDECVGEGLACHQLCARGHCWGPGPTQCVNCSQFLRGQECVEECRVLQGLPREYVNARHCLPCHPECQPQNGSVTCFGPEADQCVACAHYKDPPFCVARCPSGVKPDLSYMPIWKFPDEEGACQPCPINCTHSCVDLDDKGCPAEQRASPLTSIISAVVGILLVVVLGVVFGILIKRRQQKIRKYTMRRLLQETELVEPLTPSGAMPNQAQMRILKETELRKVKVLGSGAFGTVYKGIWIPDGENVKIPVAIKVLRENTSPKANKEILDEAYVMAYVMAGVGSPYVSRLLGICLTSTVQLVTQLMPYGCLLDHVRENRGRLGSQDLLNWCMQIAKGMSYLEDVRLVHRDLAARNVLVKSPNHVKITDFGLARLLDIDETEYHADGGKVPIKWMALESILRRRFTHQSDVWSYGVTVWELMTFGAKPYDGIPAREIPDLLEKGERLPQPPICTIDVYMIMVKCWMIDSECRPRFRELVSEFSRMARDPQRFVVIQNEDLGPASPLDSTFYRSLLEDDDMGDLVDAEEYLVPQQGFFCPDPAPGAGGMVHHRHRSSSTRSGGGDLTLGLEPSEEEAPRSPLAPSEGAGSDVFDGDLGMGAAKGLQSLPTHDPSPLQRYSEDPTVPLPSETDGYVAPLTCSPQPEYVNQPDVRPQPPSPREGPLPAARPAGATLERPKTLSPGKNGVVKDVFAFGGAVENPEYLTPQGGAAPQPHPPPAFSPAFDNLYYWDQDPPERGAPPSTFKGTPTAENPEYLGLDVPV

Counter-ions that a name gives are not always drawn. Bounds are passed on as bounds.

EGFR(D770_N771insSVD) expressing Ba/F3 stable cell line, sequence (P00533 with tags, fused parts or gaps DUP768-770): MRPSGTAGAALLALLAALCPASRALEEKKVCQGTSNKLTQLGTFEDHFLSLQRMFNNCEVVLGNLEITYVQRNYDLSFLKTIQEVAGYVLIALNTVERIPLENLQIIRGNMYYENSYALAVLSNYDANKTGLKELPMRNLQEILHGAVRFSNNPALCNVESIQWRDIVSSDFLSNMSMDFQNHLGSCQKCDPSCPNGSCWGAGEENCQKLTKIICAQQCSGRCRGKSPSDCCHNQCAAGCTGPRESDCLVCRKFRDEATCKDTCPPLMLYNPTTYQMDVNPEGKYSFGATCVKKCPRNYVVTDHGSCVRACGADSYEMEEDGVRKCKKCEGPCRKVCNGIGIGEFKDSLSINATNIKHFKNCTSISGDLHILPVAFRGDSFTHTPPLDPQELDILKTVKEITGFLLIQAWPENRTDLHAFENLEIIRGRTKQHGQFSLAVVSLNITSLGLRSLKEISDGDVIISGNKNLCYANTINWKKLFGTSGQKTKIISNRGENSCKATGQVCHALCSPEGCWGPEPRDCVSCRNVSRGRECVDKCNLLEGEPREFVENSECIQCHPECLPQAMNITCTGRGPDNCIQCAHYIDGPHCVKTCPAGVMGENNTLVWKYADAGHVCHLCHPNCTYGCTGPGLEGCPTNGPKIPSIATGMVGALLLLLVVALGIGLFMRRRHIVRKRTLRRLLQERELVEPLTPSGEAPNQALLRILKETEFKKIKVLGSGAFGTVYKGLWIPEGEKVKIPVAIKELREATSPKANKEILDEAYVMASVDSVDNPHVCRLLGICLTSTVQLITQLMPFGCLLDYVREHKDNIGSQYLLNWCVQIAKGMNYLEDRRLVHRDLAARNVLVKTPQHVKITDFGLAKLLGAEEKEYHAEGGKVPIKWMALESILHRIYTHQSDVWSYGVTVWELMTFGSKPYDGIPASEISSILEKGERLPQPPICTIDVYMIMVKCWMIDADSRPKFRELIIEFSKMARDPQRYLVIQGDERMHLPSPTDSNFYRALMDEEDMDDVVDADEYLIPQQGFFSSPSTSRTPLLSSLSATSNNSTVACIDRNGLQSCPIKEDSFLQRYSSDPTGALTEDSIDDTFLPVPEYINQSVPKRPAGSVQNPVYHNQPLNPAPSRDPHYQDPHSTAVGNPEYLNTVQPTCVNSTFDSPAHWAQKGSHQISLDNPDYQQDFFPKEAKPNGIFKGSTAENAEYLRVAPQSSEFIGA
EGFR (H773insNPH) expressing Ba/F3 stable cell line, sequence (P00533 with tags, fused parts or gaps DUP771-773): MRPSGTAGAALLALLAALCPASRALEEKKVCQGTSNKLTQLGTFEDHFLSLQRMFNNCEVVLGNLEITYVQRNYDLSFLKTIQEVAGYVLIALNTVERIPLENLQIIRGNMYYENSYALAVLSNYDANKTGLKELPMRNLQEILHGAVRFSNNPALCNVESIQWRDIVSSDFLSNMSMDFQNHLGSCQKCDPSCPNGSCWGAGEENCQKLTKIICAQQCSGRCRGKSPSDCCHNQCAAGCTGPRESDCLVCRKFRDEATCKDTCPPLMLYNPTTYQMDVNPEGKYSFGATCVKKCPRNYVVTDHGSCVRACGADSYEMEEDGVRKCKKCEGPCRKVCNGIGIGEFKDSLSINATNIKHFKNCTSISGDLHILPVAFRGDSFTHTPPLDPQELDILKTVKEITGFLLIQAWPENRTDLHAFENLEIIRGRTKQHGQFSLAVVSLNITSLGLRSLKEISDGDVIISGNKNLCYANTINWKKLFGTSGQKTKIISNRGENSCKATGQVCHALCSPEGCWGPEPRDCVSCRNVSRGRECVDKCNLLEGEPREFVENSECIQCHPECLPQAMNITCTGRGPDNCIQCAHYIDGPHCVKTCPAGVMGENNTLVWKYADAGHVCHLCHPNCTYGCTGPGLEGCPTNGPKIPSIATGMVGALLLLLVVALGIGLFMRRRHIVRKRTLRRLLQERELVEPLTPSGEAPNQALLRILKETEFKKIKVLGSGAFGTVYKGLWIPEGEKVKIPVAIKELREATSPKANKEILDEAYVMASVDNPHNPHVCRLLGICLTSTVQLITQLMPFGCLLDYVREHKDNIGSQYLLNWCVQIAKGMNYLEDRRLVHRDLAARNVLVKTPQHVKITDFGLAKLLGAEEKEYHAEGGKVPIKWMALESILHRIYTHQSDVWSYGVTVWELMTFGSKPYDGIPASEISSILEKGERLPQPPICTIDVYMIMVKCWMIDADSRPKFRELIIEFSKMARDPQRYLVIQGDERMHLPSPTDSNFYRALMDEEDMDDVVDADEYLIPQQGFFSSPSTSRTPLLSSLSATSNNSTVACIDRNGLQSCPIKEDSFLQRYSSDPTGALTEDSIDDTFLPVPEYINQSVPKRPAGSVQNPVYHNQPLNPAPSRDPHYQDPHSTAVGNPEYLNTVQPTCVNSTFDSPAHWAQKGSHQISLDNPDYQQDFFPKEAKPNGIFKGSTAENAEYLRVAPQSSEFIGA

For the compound `C=CC(=O)Nc1ccc(F)c(Nc2nc(Nc3cnn(C4CCN(C)CC4)c3)ncc2Cl)c1` [Compound 14, N-(3-((5-chloro-2-((1-(1-methylpiperidin-4-yl)-1H-pyrazol-4-yl)amino)pyrimidin-4-yl)amino)-4-fluorophenyl)acrylamide], the GI50 came out at 320 nM in assay [1], 170 nM in assay [2], 192 nM in assay [4] and 756 nM in assay [5]. Further, the IC50 in assay [3] was 1830 nM.

Take `C=CC(=O)Nc1ccc(F)c(Nc2nc(Nc3cnn(C)c3)ncc2-c2ccc(C(F)(F)F)cc2)c1` [Compound 37, N-(4-fluoro-3-((2-((1-methyl-1H-pyrazol-4-yl)amino)-5-(4-(trifluoromethyl)phenyl)pyrimidin-4-yl)amino)phenyl)acrylamide]: the GI50 was determined as 34 nM in assay [1], 73 nM in assay [2], 85 nM in assay [4] and 974 nM in assay [5]. Besides, the IC50 in assay [3] was determined as 185 nM.

As to `C=CC(=O)Nc1ccc(F)c(Nc2nc(Nc3ccc(CN(C)C)cc3)ncc2-c2ccc(C(F)(F)F)cc2)c1` [Compound 45, N-(3-((2-((4-((dimethylamino)methyl)phenyl)amino)-5-(4-(trifluoromethyl)phenyl)pyrimidin-4-yl)amino)-4-fluorophenyl)acrylamide trifluoroacetate], the GI50 in assay [1] was determined as 105 nM; in assay [2], 238 nM; in assay [4] it was 149 nM; in assay [5], 134 nM. Moreover, in assay [3], the IC50 was found to be 27 nM.

In the case of `C=CC(=O)Nc1ccc(F)c(Nc2nc(Nc3cnn(C)c3)ncc2-c2ccc(C(F)(F)F)nc2)c1` [Compound 57, N-(4-fluoro-3-((2-((1-methyl-1H-pyrazol-4-yl)amino)-5-(6-(trifluoromethyl)pyridin-3-yl)pyrimidin-4-yl)amino)phenyl)acrylamide], the GI50 was found to be 44 nM in assay [1], 71 nM in assay [2], 82 nM in assay [4] and 177 nM in assay [5]. For the same compound, the IC50 in assay [3] was 1940 nM.

For `C=CC(=O)Nc1ccc(F)c(Nc2nc(Nc3cnn(C)c3)ncc2-c2ccc(Cl)cc2)c1` [Compound 61, N-(3-((5-(4-chlorophenyl)-2-((1-methyl-1H-pyrazol-4-yl)amino)pyrimidin-4-yl)amino)-4-fluorophenyl)acrylamide], the GI50 in assay [1] amounted to 56 nM; in assay [2] it was 99 nM; in assay [4], 91 nM; in assay [5], 219 nM. The IC50 in assay [3] was 261 nM.

Take `C=CC(=O)Nc1ccc(F)c(Nc2nc(Nc3cnn(C)c3)ncc2-c2ccc(F)cc2)c1` [Compound 63, N-(4-fluoro-3-((5-(4-fluorophenyl)-2-((1-methyl-1H-pyrazol-4-yl)amino)pyrimidin-4-yl)amino)phenyl)acrylamide]: the GI50 worked out at 60 nM in assay [1], 102 nM in assay [2], 116 nM in assay [4] and 344 nM in assay [5]. Besides, the IC50 in assay [3] was 1280 nM.

With `C=CC(=O)Nc1ccc(F)c(Nc2nc(Nc3cnn(C)c3)ncc2-c2cncc(C)c2)c1` [Compound 67, N-(4-fluoro-3-((2-((1-methyl-1H-pyrazol-4-yl)amino)-5-(5-methylpyridin-3-yl)pyrimidin-4-yl)amino)phenyl)acrylamide], the GI50 stood at 30 nM in assay [1], 36 nM in assay [2], 41 nM in assay [4] and 26 nM in assay [5]. The concentration for half-maximal inhibition (IC50) in assay [3] was found to be 120 nM.

For the compound `C=CC(=O)Nc1ccc(F)c(Nc2nc(Nc3cnn(C)c3)ncc2-c2ccnc(OC)c2)c1` [Compound 68, N-(4-fluoro-3-((5-(2-methoxypyridin-4-yl)-2-((1-methyl-1H-pyrazol-4-yl)amino)pyrimidin-4-yl)amino)phenyl)acrylamide], the GI50 in assay [1] worked out at 101 nM; in assay [2], 108 nM; in assay [4] it was 107 nM; in assay [5], 128 nM. The IC50 in assay [3] came out at 223 nM.

In the case of `C=CC(=O)Nc1ccc(F)c(Nc2nc(Nc3cnn(C)c3)ncc2-c2cncc(F)c2)c1` [Compound 69, N-(4-fluoro-3-((5-(5-fluoropyridin-3-yl)-2-((1-methyl-1H-pyrazol-4-yl)amino)pyrimidin-4-yl)amino)phenyl)acrylamide], the GI50 was determined as 11 nM in assay [1], 14 nM in assay [2], 21 nM in assay [4] and 19 nM in assay [5]. Also, the IC50 in assay [3] was 65 nM.

Consider `C=CC(=O)Nc1ccc(F)c(Nc2nc(Nc3cnn(C)c3)ncc2-c2ccc(OC(F)F)nc2)c1` [Compound 70, N-(3-((5-(6-(difluoromethoxy)pyridin-3-yl)-2-((1-methyl-1H-pyrazol-4-yl)amino)pyrimidin-4-yl)amino)-4-fluorophenyl)acrylamide], for which the GI50 in assay [1] amounted to 35 nM; in assay [2] it was 36 nM; in assay [4], 88 nM; in assay [5], 123 nM. Besides, the IC50 in assay [3] came to 77 nM.

`C=CC(=O)Nc1ccc(F)c(Nc2nc(Nc3cnn(C)c3)ncc2-c2ccnc(OC(F)F)c2)c1` [Compound 71, N-(3-((5-(2-(difluoromethoxy)pyridin-4-yl)-2-((1-methyl-1H-pyrazol-4-yl)amino)pyrimidin-4-yl)amino)-4-fluorophenyl)acrylamide]: the GI50 in assay [1] is 107 nM; in assay [2], 107 nM; in assay [4] it was 103 nM; in assay [5], 226 nM. Besides, the IC50 in assay [3] worked out at 150 nM.

For `C=CC(=O)Nc1ccc(F)c(Nc2nc(Nc3cnn(CCN(C)C)c3)ncc2-c2ccc(C(F)(F)F)cc2)c1` [Compound 72, N-(3-((2-((1-(2-(dimethylamino)ethyl)-1H-pyrazol-4-yl)amino)-5-(4-(trifluoromethyl)phenyl)pyrimidin-4-yl)amino)-4-fluorophenyl)acrylamide trifluoroacetate], the GI50 amounted to 99 nM in assay [1], 108 nM in assay [2], 95 nM in assay [4] and 129 nM in assay [5]. The IC50 in assay [3] is 80 nM.

For the compound `C=CC(=O)Nc1cccc(Nc2nc(Nc3cnn(C)c3)ncc2-c2ccc(C(F)(F)F)nc2)c1` [Compound 73, N-(3-((2-((1-methyl-1H-pyrazol-4-yl)amino)-5-(6-(trifluoromethyl)pyridin-3-yl)pyrimidin-4-yl)amino)phenyl)acrylamide], the GI50 stood at 39 nM in assay [1], 45 nM in assay [2], 100 nM in assay [4] and 113 nM in assay [5]. Besides, the 50% inhibitory concentration (IC50) in assay [3] amounted to 252 nM.

In the case of `C=CC(=O)Nc1cccc(Nc2nc(Nc3cnn(C)c3)ncc2-c2ccc(F)nc2)c1` [Compound 74, N-(3-((5-(6-fluoropyridin-3-yl)-2-((1-methyl-1H-pyrazol-4-yl)amino)pyrimidin-4-yl)amino)phenyl)acrylamide], the GI50 in assay [1] was determined as 36 nM; in assay [2], 38 nM; in assay [4], 43 nM; in assay [5], 70 nM. Further, in assay [3], the IC50 was 236 nM.

With `C=CC(=O)Nc1ccc(F)c(Nc2nc(Nc3cnn(C)c3)ncc2-c2ccc(Br)cc2)c1` [Compound 75, N-(3-((5-(4-bromophenyl)-2-((1-methyl-1H-pyrazol-4-yl)amino)pyrimidin-4-yl)amino)-4-fluorophenyl)acrylamide trifluoroacetate], the GI50 in assay [1] is 35 nM; in assay [2] it was 74 nM; in assay [4] it was 43 nM; in assay [5], 100 nM. For the same compound, in assay [3], the IC50 is 37 nM.

Take `C=CC(=O)Nc1ccc(F)c(Nc2nc(Nc3cnn(CCO)c3)ncc2-c2ccc(C(F)(F)F)cc2)c1` [Compound 78, N-(4-fluoro-3-((2-((1-(2-hydroxyethyl)-1H-pyrazol-4-yl)amino)-5-(4-(trifluoromethyl)phenyl)pyrimidin-4-yl)amino)phenyl)acrylamide]: the GI50 stood at 84 nM in assay [1], 93 nM in assay [2], 53 nM in assay [4] and 266 nM in assay [5]. The IC50 in assay [3] is more than 10000 nM.

As to `C=CC(=O)Nc1ccc(F)c(Nc2nc(Nc3cnn(C)c3)ncc2-c2ccnc(F)c2)c1` [Compound 82, N-(4-fluoro-3-((5-(2-fluoropyridin-4-yl)-2-((1-methyl-1H-pyrazol-4-yl)amino)pyrimidin-4-yl)amino)phenyl)acrylamide], the GI50 in assay [1] was determined as 38 nM; in assay [2], 103 nM; in assay [4], 57 nM; in assay [5], 226 nM. The IC50 in assay [3] worked out at 590 nM.
